Reference: PMC8041284, “Tunable Methacrylamides for Covalent Ligand Directed Release Chemistry” (Journal of the American Chemical Society, 2021)

Each compound was assayed against BTK (Homo sapiens, UniProt Q06187) (assay: biochemical). Settings: read-out: BTK inhibition (%).
BTK, sequence (Q06187 402-655 limits assumed): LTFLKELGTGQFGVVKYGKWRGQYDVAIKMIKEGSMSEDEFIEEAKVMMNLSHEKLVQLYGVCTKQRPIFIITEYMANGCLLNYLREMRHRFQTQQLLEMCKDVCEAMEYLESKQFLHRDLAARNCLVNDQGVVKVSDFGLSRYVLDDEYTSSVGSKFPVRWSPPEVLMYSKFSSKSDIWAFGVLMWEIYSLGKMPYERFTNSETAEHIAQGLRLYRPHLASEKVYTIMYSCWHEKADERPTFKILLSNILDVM

SMILES | inhibition at 10 µM [%]
CCOP(=O)(OCC)C(=Cc1cc(C(C)(C)C)c(O)c(C(C)(C)C)c1)P(=O)(OCC)OCC [PCM-0215676] | -11.6
CCC(=O)O[C@H]1CC[C@H]2[C@@H]3CC[C@H]4CC(=O)[C@H](C)C[C@]4(C)[C@H]3CC[C@]12C [PCM-0215061] | -14

Same assay, conditions: read-out: BTK inhibition (%), 0.75 uM BTK, […] probe 3l, 15 min preincubation

SMILES | inhibition at 10 µM [%]
O=C(c1ccc(/C=C/c2n[nH]c3ccccc23)cc1)N1CCNCC1 [PCM-0095209] | 46.2
O=C1C[C@@H](c2ccc(O)c(O)c2)Oc2cc(O)cc(O)c21 [PCM-0216409] | 29.3
CC(C)NC[C@H](O)COc1ccc(CCOCC2CC2)cc1 [PCM-0214769] | 0.8
Clc1ccc(CCC(Cn2ccnc2)Sc2c(Cl)cccc2Cl)cc1 (stereo not drawn) [PCM-0085946] | 37.4
CC[C@H](NC(=O)[C@H](C)NC)C(=O)N1C[C@@H](O)C[C@H]1Cc1c(-c2[nH]c3cc(F)ccc3c2C[C@@H]2C[C@H](O)CN2C(=O)[C@H](CC)NC(=O)[C@H](C)NC)[nH]c2cc(F)ccc12 [PCM-0214572] | 5.4
O=c1cc(-c2ccc(O)c(O)c2)oc2cc(O)c([C@@H]3O[C@H](CO)[C@@H](O)[C@H](O)[C@H]3O)c(O)c12 [PCM-0216497] | -4.6
CC(=O)OCC(=O)[C@@]1(O)CC[C@H]2[C@@H]3CCC4=CC(=O)CC[C@]4(C)[C@@]3(F)[C@@H](O)C[C@@]21C [PCM-0214907] | -8.3
CN1CCc2cc(Nc3ncc(C4CC4)c(NCCCNC(=O)C4CCC4)n3)ccc2C1 [PCM-0215643] | -8.5
CCOC(=O)c1ccc(NC2CCCCC2)c(N)c1 [PCM-0095725] | 31.7
O=C(/C=C/c1cccc(S(=O)(=O)Nc2ccccc2)c1)NO [PCM-0095051] | 9
Cc1nc(Nc2ccc(F)cc2)nc(N2CCc3ccccc3C2C)c1C (stereo not drawn) [PCM-0216015] | 79.3
O=c1cc(-c2ccccc2)oc2cc(O)c(O)c(O)c12 [PCM-0214670] | 79.4
CCCC[C@H](CC)COC(=O)/C=C/c1ccc(OC)cc1 [PCM-0090405] | 6.2
NC[C@H]1O[C@H](O[C@H]2[C@H](O)[C@@H](O[C@H]3O[C@H](CO)[C@@H](O)[C@H](N)[C@H]3O)[C@H](N)C[C@@H]2N)[C@H](N)C[C@@H]1O [PCM-0086125] | -14.5
CC1(C)CC[C@]2(C)CC[C@]3(C)C(=CC[C@@H]4[C@@]5(C)CC[C@@H](O)[C@](C)(C(=O)O)[C@@H]5CC[C@]43C)[C@@H]2C1 [PCM-0216570] | -6.9
CC1(C)O[C@H]1COc1c2ccoc2cc2oc(=O)ccc12 [PCM-0216499] | 0.8
CCCc1ncc(C[n+]2ccccc2C)c(N)n1 [PCM-0085765] | -8.5
Cc1cc(C)cc(NC(=O)Cc2ccc(OC(C)(C)C(=O)O)cc2)c1 [PCM-0214786] | -2.3
C#C[C@]1(O)CC[C@H]2[C@@H]3CCC4=CCCC[C@@H]4[C@H]3C(=C)C[C@@]21CC [PCM-0214824] | 27.2
CN1CCN(C(=O)c2ccc(-c3ccc4c(C=O)c(O)ccc4c3)s2)CC1 [PCM-0215885] | 77.2
N[C@H]1C[C@@H]1c1ccc(-c2cccc(O)c2)cc1 [PCM-0095788] | -1.5
O=C1c2c(O)cc(O)cc2O[C@H](c2cc(O)c(O)c(O)c2)[C@H]1O [PCM-0094847] | -9
CNc1cc(-c2cccc(Cl)c2Cl)nc(N)n1 [PCM-0215511] | -13.1
C[C@@H]1CCO[C@H]2Cn3cc(C(=O)NCc4ccc(F)cc4F)c(=O)c(O)c3C(=O)N12 [PCM-0214696] | 30.4
O=C(c1ccccc1)c1ccc2nc(NC(=O)c3csc(C4CCN(c5ncnc6ccsc56)CC4)n3)[nH]c2c1 [PCM-0095775] | 20.1
CC(C)(C)OC(=O)N[C@H]1CCCCC/C=C\[C@@H]2C[C@@]2(C(=O)NS(=O)(=O)C2CC2)NC(=O)[C@@H]2C[C@@H](OC(=O)N3Cc4cccc(F)c4C3)CN2C1=O [PCM-0214602] | -12.5
COc1cc(/C=C/C=O)ccc1O [PCM-0216477] | 1.5
C[C@@H](N)c1ccc(C(=O)Nc2ccnc3[nH]ccc23)cc1 [PCM-0215750] | -30.3
